US7951796B2 (priority 2005, dated 2011)

Experiments:
[1] = test system: RML scrapie prion infection; type: in vivo, mouse (transgene TG 20); conditions: TG 20 mice
[2] = test system: cellular cholesterol in ScN2a cells; type: cell-based, mouse

Row | Structure (SMILES) | time to death of prion disease ([1]; intracerebral RML scrapie, 2 mg per mouse by gavage three times weekly for eight weeks, untreated control 92±4 days) [days] | lengthening of the survival time ([1]; versus untreated control, Student's t test p<0.0001) [%] | cholesterol distribution (filipin staining) [2]
1 | COc1ccc2nc3cc(Cl)ccc3c(NCCCCN3CCN(CCCN4c5ccccc5CCc5ccccc54)CC3)c2c1 [compound (10), (6-chlor-2-methoxy-acridine-9-yl)-(4-{4-[3-(10,11-dihydro-dibenzo[b,f]azepine-5-yl)-propyl]-piperazine-1-yl}-butyl)-amine] | 100 ± 5 | 10 | redistribution was revealed to intracellular compartments
2 | CCN(CC)CCCC(C)Nc1c2ccc(Cl)cc2nc2ccc(OC)cc12 (stereo not shown) [Quinacrin, reference compound] | – | – | redistribution was revealed to intracellular compartments
